79 compounds from article PMC12040169 (PLOS Biology, 2025) can be followed below.

The structures appear in SMILES notation.

One data set in a line: in vitro. The following applies: human, hela cells.
The viability is a read-out of living cells in per cent, often relative to untreated cells. As to `NC(=O)COC(=O)COc1ccc(Cl)cc1Cl` [CBK058628], the viability at 28.5 h, 10 µM is 85.8%.

The data set is the same for the next values; noted with them: human, hela cells, % viability.
For the compound `Cn1c(=O)c2c(nc(N3CCOCC3)n2CC/N=C2/CCCN2)n(C)c1=O` [CBK267709C], the viability at 28.5 h, 10 µM was determined as 85.9%.

For `CCCCSc1nnc(NS(=O)(=O)c2ccc(NC(C)=O)cc2)s1` [CBK022853], the viability at 28.5 h, 10 µM was determined as 98.5%.

As to `CNC(=O)c1cccc(NC(=O)c2ccc(C)nc2N2CCOCC2)c1` [CBK106223], the viability at 28.5 h, 10 µM worked out at 95.1%.

As for `O=C(c1cnn(-c2ccccc2)c1)N1CCc2[nH]c3ccccc3c2C1` [CBK281853], the viability at 28.5 h, 10 µM amounted to 74.1%.

For the compound `CN(C)CCN(C)C(=O)c1ccc(-c2cc3ccccc3o2)nc1NCc1cccnc1` [CBK076160], the viability at 28.5 h, 10 µM came out at 90.8%.

In the case of `CC(=O)N[C@H](Cc1c[nH]c2ccccc12)C(=O)N1CCN(c2ccc(C)cc2)CC1` [CBK091333], the viability at 28.5 h, 10 µM was 91.1%.

With `COc1ccc(OC)c(NC(=O)c2c[nH]c(=O)n(-c3ccc(F)cc3)c2=O)c1` [CBK287552], the viability at 28.5 h, 10 µM stood at 99%.

Turning to `Cc1ccccc1OCc1nnc(SCC(N)=O)n1-c1ccccc1` [CBK268808], the viability at 28.5 h, 10 µM turned out to be 101%.

For `O=C(Cc1ccccc1)NN1C(=O)/C(=C/c2ccccc2C(=O)O)SC1=S` [CBK262975], the viability at 28.5 h, 10 µM came out at 104%.

As to `Cc1cc(C)n(CC(O)CN(Cc2ccccc2)Cc2ccco2)n1` (stereo not shown) [CBK282957], the viability at 28.5 h, 10 µM was 95.7%.

Consider `O=S(=O)(Nc1nnc(C(F)(F)F)s1)c1ccc(Br)cc1C(F)(F)F` [CBK062013], for which the viability at 28.5 h, 10 µM is 96.7%.

In the case of `c1ccc(Cn2c(CN3CCCCC3)nc3ccccc32)cc1` [CBK269237], the viability at 28.5 h, 10 µM came to 102%.

Regarding `Cc1cc(C(F)(F)F)nc(SCC(=O)N2c3ccccc3Sc3ccccc32)n1` [CBK268078], the viability at 28.5 h, 10 µM amounted to 90.8%.

In the case of `Cc1cc(=O)[nH]c(SCC(=O)O)c1C#N` [CBK019224], the viability at 28.5 h, 10 µM worked out at 116%.

In the case of `CCN(CC)CCOC(=O)C1(c2ccccc2)CCOc2ccccc21` (stereo not shown) [CBK009850C], the viability at 28.5 h, 10 µM was determined as 95.6%.

Take `COc1cccc(CN2CCOC3(CCN(C(=O)OCc4ccccc4)CC3)C2)c1` [CBK161098T]: the viability at 28.5 h, 10 µM was 95.4%.

For `CCC(C)(C)c1ccc(S(=O)(=O)N2CCN(CCCOC3CCCCO3)CC2)cc1` (stereo not shown) [CBK063135], the viability at 28.5 h, 10 µM was determined as 96.9%.

For `CCNC(=S)N1CCN(CCNC=C2C(=O)CC(c3ccco3)CC2=O)CC1` (stereo not shown) [CBK264742], the viability at 28.5 h, 10 µM stood at 91.7%.

Regarding `Cc1c(C(=O)NC(Cc2ccsc2)c2cccnc2)cnn1C` (stereo not shown) [CBK285115], the viability at 28.5 h, 10 µM was 110%.

Take `CCOC(=O)C1CCN(C(=O)CCn2ccc3ccncc32)CC1` [CBK284720]: the viability at 28.5 h, 10 µM was 84.2%.

`CCOC(=O)C1CCN(CCC(=O)Nc2ccc(F)c(F)c2)CC1` [CBK264252]: the viability at 28.5 h, 10 µM worked out at 112%.

As for `COc1ccc(C(=O)COC(=O)c2cc(-c3ccc(Cl)cc3)nc3ccc(C)cc23)cc1[N+](=O)[O-]` [CBK264072], the viability at 28.5 h, 10 µM is 90.6%.

Take `O=C(NNC(=S)NCCc1ccccc1)c1ccc(Br)o1` [CBK266818]: the viability at 28.5 h, 10 µM worked out at 96.3%.

For the compound `COc1ccc(-c2[nH]c3ncccc3c2CN2CCCC2)cc1` [CBK285331], the viability at 28.5 h, 10 µM was 69.4%.

Consider `CCN(CC)CCOC(=O)c1oc2c3c(ccc2c1C)OCCO3` [CBK008676C], for which the viability at 28.5 h, 10 µM is 115%.

Consider `COc1ccc(-c2cc3ncnc(Sc4nnnn4CC4CCCO4)c3s2)cc1` (stereo not shown) [CBK297157], for which the viability at 28.5 h, 10 µM came out at 95.9%.

On to `Cc1noc(COc2ccc(OCc3nc(C)no3)cc2)n1` [CBK261364], for which the viability at 28.5 h, 10 µM is 95.6%.

On to `CCS(=O)(=O)c1ccc2cc(C(=O)O)[nH]c2c1` [CBK286951], for which the viability at 28.5 h, 10 µM came out at 101%.

Regarding `CCn1c(=O)n(CC(=O)NC2CCCCC2)c2cccnc21` [CBK283810], the viability at 28.5 h, 10 µM was determined as 83.6%.

On to `COC(=O)c1cccn2cc(CN3CCSC(C)C3)nc12` (stereo not shown) [CBK304958], for which the viability at 28.5 h, 10 µM was 97.4%.

Regarding `OC(CN1CCN(Cc2ccc3c(c2)OCO3)CC1)c1ccccc1` (stereo not shown) [CBK074759], the viability at 28.5 h, 10 µM came out at 82.8%.

Take `CC(=O)C1=C(c2ccccc2)NC(=S)NC1c1cc(Cl)ccc1OCC(=O)O` (stereo not shown) [CBK267300]: the viability at 28.5 h, 10 µM is 99.4%.

For the compound `CN(C)c1nc(NCc2ccccc2)nc(SCC(=O)Nc2ccc(Cl)c(Cl)c2)n1` [CBK267289], the viability at 28.5 h, 10 µM came out at 97%.

For the compound `CS(=O)(=O)c1ccc(Cn2c(=O)n(S(=O)(=O)c3ccccc3)c3ccccc32)cc1` [CBK106530], the viability at 28.5 h, 10 µM is 95.1%.

On to `CCN(CC)CCN(C(=O)NCCc1c[nH]c2ccc(OC)cc12)C(C)c1ccc(OC)c(OC)c1` (stereo not shown) [CBK158948], for which the viability at 28.5 h, 10 µM stood at 90.4%.

As for `CCc1ccccc1OCC(=O)Nc1ccc([N+](=O)[O-])cc1OC` [CBK265665], the viability at 28.5 h, 10 µM came to 97.1%.

`Cc1ccc(C)c(-n2nnnc2SC(C)C(=O)N2CCCC2)c1` (stereo not shown) [CBK295204]: the viability at 28.5 h, 10 µM was 79.9%.

As for `CC(C)(C)OC(=O)N1CCN(Cc2ncc(-c3ccccc3)o2)CC1` [CBK306281], the viability at 28.5 h, 10 µM was 99.3%.

Turning to `COc1ccc2oc(-c3ccccc3)c(C(=O)Nc3nccs3)c2c1` [CBK287767], the viability at 28.5 h, 10 µM was found to be 71.8%.

`COc1cccc(NC(=O)c2cnc(-c3ccc(Cl)cc3)c(-c3ccco3)c2)c1OC` [CBK037428]: the viability at 28.5 h, 10 µM is 103%.

For `O=C(O)c1csc(S(=O)(=O)Nc2ccccc2C(=O)Nc2ccc3c(c2)OCO3)c1` [CBK295655], the viability at 28.5 h, 10 µM was determined as 102%.

Consider `Cc1cc(NC(=O)c2ccc(N3C(=O)CCC3=O)cc2)nc2c1c(=O)oc1ccccc12` [CBK291205], for which the viability at 28.5 h, 10 µM turned out to be 114%.

Take `Cc1cc(N)n(CC(=O)NCCCn2ccnc2C(C)C)n1` [CBK306632]: the viability at 28.5 h, 10 µM is 89.3%.

For `Cc1nc(C)c(C(=O)NC2Cc3ccccc3C2)s1` [CBK200357], the viability at 28.5 h, 10 µM is 91.2%.

Turning to `O=C1CN(C(=O)NCCOc2ccccc2)CCN1` [CBK155871], the viability at 28.5 h, 10 µM was found to be 120%.

For the compound `O=C(Cc1cc(Cl)ccc1C(F)(F)F)Nc1ccc2ncccc2c1` [CBK159802], the viability at 28.5 h, 10 µM is 94.7%.

Take `CC(=O)Nc1ccc(OCC(O)Cn2cnc3cc(C)c(C)cc32)cc1` (stereo not shown) [CBK304545]: the viability at 28.5 h, 10 µM stood at 93.3%.

Take `Cc1cc(NC(=O)C2CCCC2)nc2c1c(=O)oc1ccccc12` [CBK287438]: the viability at 28.5 h, 10 µM is 93.2%.

For `NC1=NC(=O)C(CC(=O)Nc2ccccc2Cl)S1` (stereo not shown) [CBK039145], the viability at 28.5 h, 10 µM turned out to be 99.1%.

Take `NC1CCN(c2nccnc2OCCOc2cccnc2)CC1` [CBK003889F]: the viability at 28.5 h, 10 µM turned out to be 82.3%.

For the compound `COc1ccc(CC(=O)N2C3CCC2CC(O)(c2ccco2)C3)cc1` (stereo not shown) [CBK284137], the viability at 28.5 h, 10 µM turned out to be 92.5%.

For the compound `CCNC(=O)CN1CCN(c2nc(C(F)(F)F)ccc2C#N)CC1` [CBK305515], the viability at 28.5 h, 10 µM was 86.4%.

On to `Cc1c(C(=O)Nc2ccccn2)sc2nc(-c3ccccc3)cn12` [CBK287501], for which the viability at 28.5 h, 10 µM amounted to 98.3%.

Consider `Nc1cc(N)nc(SCC(=O)Nc2ccc(Oc3ccccc3)cc2)n1` [CBK266749], for which the viability at 28.5 h, 10 µM was 95%.

For the compound `O=C(NCc1ccc2c(c1)OCO2)c1ccc(S(=O)(=O)N2CCCC2)cc1` [CBK263590], the viability at 28.5 h, 10 µM amounted to 108%.

As for `CC(C)(N)CC(=O)N1CCN(c2ncccn2)CC1` [CBK144532], the viability at 28.5 h, 10 µM was 91.3%.

As for `O=c1[nH]cc(-c2ccccc2)cc1CNCC1Cc2ccccc2O1` (stereo not shown) [CBK284772], the viability at 28.5 h, 10 µM was 92.3%.

`CCCSc1scc2c1-c1n[nH]cc1CC2` [CBK017006]: the viability at 28.5 h, 10 µM was 99.3%.

Take `Cc1ccc(S(=O)(=O)N2CCOCC2)cc1C(=O)O` [CBK262256]: the viability at 28.5 h, 10 µM was 115%.

In the case of `O=C(CSc1nnc(Cc2cccc3ccccc23)n1-c1ccccc1)NC1CCCCC1` [CBK266052], the viability at 28.5 h, 10 µM is 102%.

As to `O=c1[nH]c2ccc(NS(=O)(=O)c3ccc4c(c3)OCCCO4)cc2[nH]1` [CBK295315], the viability at 28.5 h, 10 µM came to 87.7%.

As to `c1csc(-c2nn3c(Cn4nnc5ccccc54)nnc3s2)c1` [CBK268204], the viability at 28.5 h, 10 µM worked out at 87.7%.

With `O=C(O)c1cc(NC(=O)c2cccc(Oc3ccc([N+](=O)[O-])cc3)c2)cc(C(=O)O)c1` [CBK263528], the viability at 28.5 h, 10 µM came to 80.8%.

Regarding `O=[N+]([O-])c1ccc2c(ccn2C2CC(O)C(CO)O2)c1` (stereo not shown) [CBK201163], the viability at 28.5 h, 10 µM turned out to be 95%.

On to `CC(C)N1CCC(C(=O)NC(=O)Nc2ccc3c(c2)OCCO3)CC1` [CBK034799], for which the viability at 28.5 h, 10 µM came to 93.6%.

As to `O=C(O)Cc1ccc(NS(=O)(=O)c2ccc(F)cc2)cc1` [CBK269981], the viability at 28.5 h, 10 µM stood at 94.2%.

`O=C(NC[C@H]1O[C@@H](CC(=O)N2CCCC2)[C@H](O)[C@@H]1O)c1ccc(F)c(Cl)c1` [CBK288913]: the viability at 28.5 h, 10 µM was determined as 90.9%.

For the compound `CC(C)n1c(=O)n(CC(=O)N2CCc3ccccc32)c2cccnc21` [CBK283855], the viability at 28.5 h, 10 µM worked out at 103%.

As to `CCn1c(SCC(=O)Nc2ccccc2[N+](=O)[O-])nnc1-c1cc(Br)ccc1O` [CBK268201], the viability at 28.5 h, 10 µM is 101%.

Consider `CC(C)c1ccc(S(=O)(=O)Nc2cc(F)c(F)c(F)c2)cc1` [CBK045028], for which the viability at 28.5 h, 10 µM turned out to be 104%.

On to `NC1CCN(C(=O)c2cc3ccccc3[nH]2)CC1` [CBK013294], for which the viability at 28.5 h, 10 µM came to 89.7%.

For `CCN(CC)C(=O)c1ccsc1NS(=O)(=O)c1ccc(Br)cc1` [CBK042318], the viability at 28.5 h, 10 µM was found to be 93.2%.

`COC(=O)[C@H]1CCc2ccccc2N1C(=O)C1CC1` [CBK285518]: the viability at 28.5 h, 10 µM stood at 78.9%.

For the compound `Cc1cn2c(=O)c(C(=O)Nc3ccc(F)c(C(F)(F)F)c3)cnc2s1` [CBK287713], the viability at 28.5 h, 10 µM amounted to 77.9%.

`O=C(N/N=C\c1cccc(O)c1)C(=O)N/N=C/c1cccc(O)c1` [CBK261962]: the viability at 28.5 h, 10 µM is 87.6%.

Turning to `CCNC(=O)c1cc2c(=O)n3cc(C)ccc3nc2n(Cc2ccco2)c1=N` [CBK265312], the viability at 28.5 h, 10 µM was found to be 85.8%.

Take `CC(CCN1CCN(C)CC1)c1ccccc1` (stereo not shown) [CBK261881]: the viability at 28.5 h, 10 µM came to 88.5%.

`N#CC(CCCN1CCN(c2ccccc2)CC1)(c1ccccc1)c1ccccc1` [CBK002243C]: the viability at 28.5 h, 10 µM worked out at 96.8%.
